Data reported in patent US20250230155A1 (Vanderbilt University, priority 2021, published 2025).
pEC50: −log10 of the molar value.

Target: T1, human mAChR M4 (Homo sapiens, UniProt P08173)
T1 construct: expressed in transfected cells
T1 sequence (P08173 1-479): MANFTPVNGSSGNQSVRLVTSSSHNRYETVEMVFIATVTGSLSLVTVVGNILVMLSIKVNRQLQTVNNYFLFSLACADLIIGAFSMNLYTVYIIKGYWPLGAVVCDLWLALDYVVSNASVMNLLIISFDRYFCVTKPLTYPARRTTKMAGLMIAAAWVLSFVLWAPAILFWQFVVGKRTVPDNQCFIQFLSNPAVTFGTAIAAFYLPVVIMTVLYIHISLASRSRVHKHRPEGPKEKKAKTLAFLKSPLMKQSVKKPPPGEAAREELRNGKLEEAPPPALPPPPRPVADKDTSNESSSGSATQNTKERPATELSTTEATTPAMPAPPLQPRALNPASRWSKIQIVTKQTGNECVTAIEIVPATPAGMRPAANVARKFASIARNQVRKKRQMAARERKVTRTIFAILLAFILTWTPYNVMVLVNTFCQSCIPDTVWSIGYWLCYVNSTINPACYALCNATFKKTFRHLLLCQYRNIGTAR
Experiment: mAChR M4 cell-based functional assay (calcium mobilization, CHO-K1 hM4-Gqi5 cells)
Conditions: for Emax at 30 µM: CHO-K1, % ACh maximum at 30 μM, human M4; for pEC50: positive allosteric modulator activity, increase in the EC20 acetylcholine response, CHO-K1 hM4-Gqi5 cells, read-out: Human M4 EC50
Outline: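 CHO-K1 cells stably expressing human M4 with chimeric Gqi5, loaded with Fluo-4 AM; compounds given as 11-point 1:3 curves and calcium flux read on FDSS at 1 Hz. Acetylcholine EC20 added at 144 s, EC80 at 230 s; agonist, PAM (EC20 potentiation) and antagonist (EC80 inhibition) EC50/Emax from four-parameter fits.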

SMILES	Emax at 30 µM [%]	pEC50
Cc1cc(C(=O)N(C)C)nnc1N1CCc2ncc(N3CCCn4nccc43)cc2C1 [Example 556, 6-(3-(6,7-dihydropyrazolo[1,5-a]pyrimidin-4(5H)-yl)-7,8-dihydro-1,6-naphthyridin-6(5H)-yl)-N,N,5-trimethylpyridazine-3-carboxamide]	87	5.84
Cc1cc(C(=O)N2CCC2c2ccccc2)nnc1N1CCc2ncc(N3CCCn4nccc43)cc2C1 (stereo not shown) [Example 557, (6-(3-(6,7-dihydropyrazolo[1,5-a]pyrimidin-4(5H)-yl)-7,8-dihydro-1,6-naphthyridin-6(5H)-yl)-5-methylpyridazin-3-yl)(2-phenylazetidin-1-yl)methanone]	91	6.78
Cc1cc(C(=O)N2CC3(COC3)C2)nnc1N1CCc2ncc(Nc3ccnn3C)cc2C1 [Example 561, (5-methyl-6-(3-((1-methyl-1H-pyrazol-5-yl)amino)-7,8-dihydro-1,6-naphthyridin-6(5H)-yl)pyridazin-3-yl)(2-oxa-6-azaspiro[3.3]heptan-6-yl)methanone]	82	6.77
Cc1cc(C(=O)N2CC3(COC3)C2)nnc1N1CCc2ncc(-c3ccnn3C)cc2C1 [Example 565, (5-methyl-6-(3-(1-methyl-1H-pyrazol-5-yl)-7,8-dihydro-1,6-naphthyridin-6(5H)-yl)pyridazin-3-yl)(2-oxa-6-azaspiro[3.3]heptan-6-yl)methanone]	72	6.89
Cc1cc(C(=O)N2CC(F)C2)nnc1N1CCc2ncc(-n3cccn3)cc2C1 [Example 568, (6-(3-(1H-pyrazol-1-yl)-7,8-dihydro-1,6-naphthyridin-6(5H)-yl)-5-methylpyridazin-3-yl)(3-fluoroazetidin-1-yl)methanone]	75	6.79
Cc1cc(C(=O)N2CC(C)(F)C2)nnc1N1CCc2ncc(-n3cccn3)cc2C1 [Example 569, (6-(3-(1H-pyrazol-1-yl)-7,8-dihydro-1,6-naphthyridin-6(5H)-yl)-5-methylpyridazin-3-yl)(3-fluoro-3-methylazetidin-1-yl)methanone]	78	6.70
Cc1cc(C(=O)N2CC3(C2)CC(F)(F)C3)nnc1N1CCc2ncc(-n3cccn3)cc2C1 [Example 570, (6-(3-(1H-pyrazol-1-yl)-7,8-dihydro-1,6-naphthyridin-6(5H)-yl)-5-methylpyridazin-3-yl)(6,6-difluoro-2-azaspiro[3.3]heptan-2-yl)methanone]	84	6.47
Cc1cc(C(=O)N2CC3(COC3)C2)nnc1N1CCc2ncc(-n3cccn3)cc2C1 [Example 571, (6-(3-(1H-pyrazol-1-yl)-7,8-dihydro-1,6-naphthyridin-6(5H)-yl)-5-methylpyridazin-3-yl)(2-oxa-6-azaspiro[3.3]heptan-6-yl)methanone]	85	6.67
Cc1cc(C(=O)N2CC3(C2)CC(F)(F)C3)nnc1N1CCc2ncc(N3CCO[C@H](C)C3)cc2C1 [Example 574, (R)-(6,6-difluoro-2-azaspiro[3.3]heptan-2-yl)(5-methyl-6-(3-(2-methylmorpholino)-7,8-dihydro-1,6-naphthyridin-6(5H)-yl)pyridazin-3-yl)methanone]	81	6.71

Stronger by pEC50, values ahead:

Emax at 30 µM [%]	pEC50	SMILES
90	7.00	Cc1cc(C(=O)N2CC(C(F)F)C2)nnc1N1CCc2ncc(Nc3ccnn3C)cc2C1 [Example 558, (3-(difluoromethyl)azetidin-1-yl)(5-methyl-6-(3-((1-methyl-1H-pyrazol-5-yl)amino)-7,8-dihydro-1,6-naphthyridin-6(5H)-yl)pyridazin-3-yl)methanone]
89	7.00	Cc1cc(C(=O)N2CC(C)(F)C2)nnc1N1CCc2ncc(N3CCO[C@H](C)C3)cc2C1 [Example 573, (R)-(3-fluoro-3-methylazetidin-1-yl)(5-methyl-6-(3-(2-methylmorpholino)-7,8-dihydro-1,6-naphthyridin-6(5H)-yl)pyridazin-3-yl)methanone]
74	7.04	Cc1cc(C(=O)N2CC(C(F)F)C2)nnc1N1CCc2ncc(-c3ccnn3C)cc2C1 [Example 562, (3-(difluoromethyl)azetidin-1-yl)(5-methyl-6-(3-(1-methyl-1H-pyrazol-5-yl)-7,8-dihydro-1,6-naphthyridin-6(5H)-yl)pyridazin-3-yl)methanone]
72	7.07	Cc1cc(C(=O)N2CC(C)(F)C2)nnc1N1CCc2ncc(-c3ccnn3C)cc2C1 [Example 564, (3-fluoro-3-methylazetidin-1-yl)(5-methyl-6-(3-(1-methyl-1H-pyrazol-5-yl)-7,8-dihydro-1,6-naphthyridin-6(5H)-yl)pyridazin-3-yl)methanone]
69	7.13	Cc1cc(C(=O)N2CC(F)C2)nnc1N1CCc2ncc(-c3ccnn3C)cc2C1 [Example 563, (3-fluoroazetidin-1-yl)(5-methyl-6-(3-(1-methyl-1H-pyrazol-5-yl)-7,8-dihydro-1,6-naphthyridin-6(5H)-yl)pyridazin-3-yl)methanone]
75	7.15	Cc1cc(C(=O)N2CC(F)(F)C2)nnc1N1CCc2ncc(-c3ccnn3C)cc2C1 [Example 567, (3,3-difluoroazetidin-1-yl)(5-methyl-6-(3-(1-methyl-1H-pyrazol-5-yl)-7,8-dihydro-1,6-naphthyridin-6(5H)-yl)pyridazin-3-yl)methanone]
73	7.19	Cc1cc(C(=O)N2CC(F)C2)nnc1N1CCc2ncc(Nc3ccnn3C)cc2C1 [Example 559, (3-fluoroazetidin-1-yl)(5-methyl-6-(3-((1-methyl-1H-pyrazol-5-yl)amino)-7,8-dihydro-1,6-naphthyridin-6(5H)-yl)pyridazin-3-yl)methanone]
75	7.19	Cc1cc(C(=O)N2CC(C)(F)C2)nnc1N1CCc2ncc(Nc3ccnn3C)cc2C1 [Example 560, (3-fluoro-3-methylazetidin-1-yl)(5-methyl-6-(3-((1-methyl-1H-pyrazol-5-yl)amino)-7,8-dihydro-1,6-naphthyridin-6(5H)-yl)pyridazin-3-yl)methanone]
87	7.29	Cc1cc(C(=O)N2CC(F)C2)nnc1N1CCc2ncc(N3CCO[C@H](C)C3)cc2C1 [Example 572, (R)-(3-fluoroazetidin-1-yl)(5-methyl-6-(3-(2-methylmorpholino)-7,8-dihydro-1,6-naphthyridin-6(5H)-yl)pyridazin-3-yl)methanone]
83	7.32	Cc1cc(C(=O)N2CC3(C2)CC(F)(F)C3)nnc1N1CCc2ncc(N3CCCn4nccc43)cc2C1 [Example 555, (6,6-difluoro-2-azaspiro[3.3]heptan-2-yl)(6-(3-(6,7-dihydropyrazolo[1,5-a]pyrimidin-4(5H)-yl)-7,8-dihydro-1,6-naphthyridin-6(5H)-yl)-5-methylpyridazin-3-yl)methanone]
73	7.39	Cc1cc(C(=O)N2CC(F)(F)C2)nnc1N1CCc2ncc(Nc3ccnn3C)cc2C1 [Example 566, (3,3-difluoroazetidin-1-yl)(5-methyl-6-(3-((1-methyl-1H-pyrazol-5-yl)amino)-7,8-dihydro-1,6-naphthyridin-6(5H)-yl)pyridazin-3-yl)methanone]
